Data from the supplement of paper PMC10307832.

Columns and labels:
Test in all cases: relative viability (nuclei count vs DMSO), 5 days (fraction); higher = more cells survive
Bosutinib + Trametinib = compound: COc1cc(Nc2c(C#N)cnc3cc(OCCCN4CCN(C)CC4)c(OC)cc23)c(Cl)cc1Cl [Bosutinib] + CC(=O)Nc1cccc(-n2c(=O)n(C3CC3)c(=O)c3c(Nc4ccc(I)cc4F)n(C)c(=O)c(C)c32)c1 [Trametinib] (partner 0.02 µM)
Procedure, shortened: (§1)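 Lung cancer cell lines were seeded in 1536-well plates and dosed by pin tool the next day, with either a single drug or a fixed anchor-drug dose combined with five library-drug doses (not always all listed) spaced in √10 steps. Five days later, one step fixed the cells and stained their nuclei (final 0.05% Triton X-100, 1% formaldehyde, 1 ug/ml Hoechst), and nuclei were counted on 4× images. Relative viability is the nuclei count in treated wells divided by the count in vehicle wells, and each value is the median of duplicate plates.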

Bosutinib + Crizotinib = compound: COc1cc(Nc2c(C#N)cnc3cc(OCCCN4CCN(C)CC4)c(OC)cc23)c(Cl)cc1Cl [Bosutinib] + C[C@@H](Oc1cc(-c2cnn(C3CCNCC3)c2)cnc1N)c1c(Cl)ccc(F)c1Cl [Crizotinib] (partner 1 µM)
Procedure, shortened: as §1

Bosutinib + Linsitinib = compound: COc1cc(Nc2c(C#N)cnc3cc(OCCCN4CCN(C)CC4)c(OC)cc23)c(Cl)cc1Cl [Bosutinib] + C[C@]1(O)C[C@@H](c2nc(-c3ccc4ccc(-c5ccccc5)nc4c3)c3c(N)nccn32)C1 [Linsitinib] (partner 1 µM)
Procedure, shortened: as §1

Bosutinib + Pemetrexed = compound: COc1cc(Nc2c(C#N)cnc3cc(OCCCN4CCN(C)CC4)c(OC)cc23)c(Cl)cc1Cl [Bosutinib] + Nc1nc2[nH]cc(CCc3ccc(C(=O)N[C@@H](CCC(=O)O)C(=O)O)cc3)c2c(=O)[nH]1 [Pemetrexed] (partner 0.2 µM)
Procedure, shortened: as §1

Bosutinib + Olaparib = compound: COc1cc(Nc2c(C#N)cnc3cc(OCCCN4CCN(C)CC4)c(OC)cc23)c(Cl)cc1Cl [Bosutinib] + O=C(c1cc(Cc2n[nH]c(=O)c3ccccc23)ccc1F)N1CCN(C(=O)C2CC2)CC1 [Olaparib] (partner 8 µM)
Procedure, shortened: as §1

Cell Line | relative viability (Bosutinib + Trametinib; first compound 0.01 µM) | relative viability (Bosutinib + Trametinib; first compound 0.03162 µM) | relative viability (Bosutinib + Trametinib; first compound 0.1 µM) | relative viability (Bosutinib + Trametinib; first compound 1 µM) | relative viability (Bosutinib + Crizotinib; first compound 0.01 µM) | relative viability (Bosutinib + Crizotinib; first compound 0.03162 µM) | relative viability (Bosutinib + Crizotinib; first compound 0.1 µM) | relative viability (Bosutinib + Crizotinib; first compound 1 µM) | relative viability (Bosutinib + Linsitinib; first compound 0.01 µM) | relative viability (Bosutinib + Linsitinib; first compound 0.03162 µM) | relative viability (Bosutinib + Linsitinib; first compound 0.1 µM) | relative viability (Bosutinib + Linsitinib; first compound 1 µM) | relative viability (Bosutinib + Pemetrexed; first compound 0.01 µM) | relative viability (Bosutinib + Pemetrexed; first compound 0.03162 µM) | relative viability (Bosutinib + Pemetrexed; first compound 0.1 µM) | relative viability (Bosutinib + Pemetrexed; first compound 1 µM) | relative viability (Bosutinib + Olaparib; first compound 0.01 µM) | relative viability (Bosutinib + Olaparib; first compound 0.03162 µM) | relative viability (Bosutinib + Olaparib; first compound 0.1 µM) | relative viability (Bosutinib + Olaparib; first compound 1 µM)
NCI-H1666 | 0.888 | 0.774 | 0.832 | 0.842 | 1.2 | 0.987 | 0.916 | 0.912 | 0.774 | 0.774 | 0.794 | 0.662 | 0.827 | 0.888 | 0.833 | 0.912 | 0.713 | 0.701 | 0.756 | 0.794
NCI-H1734 | 0.693 | 0.711 | 0.726 | 0.591 | 0.737 | 0.656 | 0.658 | 0.537 | 0.88 | 0.945 | 0.914 | 0.706 | 0.401 | 0.392 | 0.445 | 0.377 | 0.629 | 0.62 | 0.584 | 0.488
NCI-H1755 | 0.706 | 0.798 | 0.856 | 0.76 | 0.804 | 0.953 | 0.903 | 0.688 | 0.952 | 1.03 | 1.02 | 0.954 | 0.405 | 0.488 | 0.468 | 0.45 | 0.874 | 0.998 | 0.861 | 0.885
NCI-H1792 | 0.478 | 0.416 | 0.437 | 0.316 | 0.984 | 0.978 | 0.981 | 1 | 0.638 | 0.525 | 0.586 | 0.449 | 0.902 | 0.792 | 0.891 | 0.764 | 0.525 | 0.312 | 0.548 | 0.273
NCI-H1915 | 0.306 | 0.291 | 0.295 | 0.253 | 0.932 | 0.89 | 0.98 | 0.956 | 1.04 | 1.1 | 1.08 | 1.14 | 0.461 | 0.504 | 0.533 | 0.46 | 0.259 | 0.256 | 0.258 | 0.26
NCI-H1944 | 0.415 | 0.45 | 0.394 | 0.327 | 1.16 | 1.07 | 1.09 | 0.946 | 1.18 | 1.25 | 1.14 | 0.809 | 0.706 | 0.624 | 0.555 | 0.601 | 0.411 | 0.384 | 0.417 | 0.433
NCI-H1975 | 0.29 | 0.329 | 0.42 | 0.322 | 0.926 | 0.965 | 1.01 | 0.849 | 0.932 | 0.833 | 0.952 | 0.722 | 0.287 | 0.289 | 0.292 | 0.281 | 0.71 | 0.784 | 0.794 | 0.56
NCI-H1993 | 0.461 | 0.513 | 0.579 | 0.538 | 0.816 | 0.875 | 0.686 | 0.602 | 0.749 | 0.759 | 0.645 | 0.762 | 0.506 | 0.663 | 0.611 | 0.686 | 0.988 | 0.996 | 1.04 | 1.01
NCI-H2009 | 0.276 | 0.344 | 0.27 | 0.166 | 1.05 | 1.07 | 1.03 | 0.66 | 1.18 | 1.22 | 1.2 | 0.886 | 0.944 | 1.06 | 1.17 | 0.946 | 0.708 | 0.709 | 0.696 | 0.575
NCI-H2023 | 0.647 | 0.474 | 0.537 | 0.434 | 0.538 | 0.613 | 0.511 | 0.366 | 0.763 | 0.743 | 0.62 | 0.402 | 0.218 | 0.263 | 0.23 | 0.223 | 0.493 | 0.427 | 0.461 | 0.423
NCI-H2085 | 0.564 | 0.467 | 0.54 | 0.5 | 0.799 | 0.685 | 0.826 | 0.874 | 0.778 | 0.865 | 0.835 | 1 | 0.869 | 0.863 | 0.87 | 0.736 | 0.717 | 0.72 | 0.709 | 0.89
NCI-H2087 | 0.156 | 0.218 | 0.228 | 0.223 | 0.905 | 0.991 | 0.817 | 0.908 | 0.871 | 1.08 | 0.779 | 0.94 | 0.705 | 0.626 | 0.741 | 0.631 | 0.663 | 0.599 | 0.749 | 0.649
NCI-H2126 | 0.528 | 0.546 | 0.559 | 0.536 | 0.934 | 1.02 | 0.987 | 0.957 | 0.645 | 0.717 | 0.687 | 0.628 | 0.659 | 0.645 | 0.694 | 0.658 | 0.892 | 0.885 | 0.916 | 0.936
NCI-H2228 | 0.54 | 0.599 | 0.494 | 0.355 | 0.472 | – | 0.402 | 0.333 | 0.821 | – | 0.818 | 0.496 | 0.354 | 0.308 | 0.361 | 0.319 | 0.654 | 0.671 | 0.468 | 0.735
NCI-H2347 | 0.309 | 0.27 | 0.297 | 0.307 | 0.835 | 0.877 | 0.914 | 0.648 | 1.08 | 1 | 1.01 | 0.987 | 0.434 | 0.469 | 0.462 | 0.421 | 0.491 | 0.609 | 0.545 | 0.539
NCI-H2405 | 0.659 | 0.653 | 0.605 | 0.396 | 0.945 | 0.855 | 0.891 | 0.576 | 0.953 | 0.949 | 0.954 | 0.418 | 1.14 | 1.08 | 1.06 | 0.824 | 0.978 | 0.887 | 0.902 | 0.691
